These results are taken from patent US11673898B2, “Substituted inhibitors of menin-MLL and methods of use” (Kura Oncology, Inc., priority 2016, dated 2023).

pIC50: −log10 of the molar value.

The term pIC50 denotes the negative decadic logarithm of the IC50, by convention in mol/L.

The assay has as its target T1, Menin MLL 4-43 (Homo sapiens, UniProt O00255).
T1 sequence (O00255 1-610): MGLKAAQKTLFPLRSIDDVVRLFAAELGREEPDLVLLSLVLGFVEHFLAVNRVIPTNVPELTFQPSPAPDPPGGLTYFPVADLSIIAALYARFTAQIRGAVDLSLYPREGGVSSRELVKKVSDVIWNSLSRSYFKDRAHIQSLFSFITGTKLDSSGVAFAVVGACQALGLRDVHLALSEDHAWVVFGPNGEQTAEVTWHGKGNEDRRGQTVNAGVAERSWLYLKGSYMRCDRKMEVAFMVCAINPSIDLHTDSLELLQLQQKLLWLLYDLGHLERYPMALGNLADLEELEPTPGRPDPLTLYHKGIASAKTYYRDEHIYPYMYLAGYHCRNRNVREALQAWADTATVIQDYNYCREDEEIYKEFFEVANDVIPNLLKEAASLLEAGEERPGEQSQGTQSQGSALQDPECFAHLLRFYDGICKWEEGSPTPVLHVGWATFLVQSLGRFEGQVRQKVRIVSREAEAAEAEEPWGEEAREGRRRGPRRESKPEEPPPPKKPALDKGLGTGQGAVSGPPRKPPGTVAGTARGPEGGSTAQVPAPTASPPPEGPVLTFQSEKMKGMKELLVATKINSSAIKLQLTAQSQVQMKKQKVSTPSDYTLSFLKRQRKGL
The assay can be described thus: Fluorescence polarization (FP) competition assay of the menin-MLL interaction. It is filed as binding. The note with it: fluorescence polarization assay; read-out: Menin MLL 4-43 IC50. A general note: Fluorescence polarisation rises when a labelled molecule tumbles more slowly, as on binding a larger partner.
For `C=CC(=O)Nc1ccc(C(Cn2c(C#N)cc3c(C)c(CN4CCC(Nc5ncnc6sc(CC(F)(F)F)cc56)CC4)ccc32)OC)cc1` (stereo not drawn) [Compound 1], the pIC50 is 6.00 to 7.70.
As for `Cc1c(CN2CCC(Nc3ncnc4sc(CC(F)(F)F)cc34)CC2)ccc2c1cc(C#N)n2CC(C)N1CCN(S(C)(=O)=O)CC1` (stereo not drawn) [Compound 2], the figure is 6.60 to 7.30; as for `Cc1c(CN2CCC(Nc3ncnc4sc(CC(F)(F)F)cc34)CC2)ccc2c1cc(C#N)n2CC(C)N1CCN(S(C)(=O)=O)CC1` (stereo not drawn) [Compound 3], 6.00 to 7.70; as for `CCS(=O)(=O)N1CCN(C(C)Cn2c(C#N)cc3c(C)c(CN4CCC(Nc5ncnc6sc(CC(F)(F)F)cc56)CC4)ccc32)CC1` (stereo not drawn) [Compound 4], 6.60 to 7.30.
As for `CC(=O)N1CCN(C(C)Cn2c(C#N)cc3c(C)c(CN4CCC(Nc5ncnc6sc(CC(F)(F)F)cc56)CC4)ccc32)CC1` (stereo not drawn) [Compound 5], the figure is 6.60 to 7.30; as for `Cc1c(CN2CCC(Nc3ncnc4sc(CC(F)(F)F)cc34)CC2)ccc2c1cc(C#N)n2CC(C)N1CCN(C=O)CC1` (stereo not drawn) [Compound 6], greater than 7.30.
Regarding `Cc1c(CN2CCC(Nc3ncnc4sc(CC(F)(F)F)cc34)CC2)ccc2c1cc(C#N)n2CC(C)N1CCN(S(N)(=O)=O)CC1` (stereo not drawn) [Compound 7], the pIC50 is 6.60 to 7.30.
With `CNS(=O)(=O)N1CCN(C(C)Cn2c(C#N)cc3c(C)c(CN4CCC(Nc5ncnc6sc(CC(F)(F)F)cc56)CC4)ccc32)CC1` (stereo not drawn) [Compound 8] the figure was greater than 7.30; with `Cc1c(CN2CCC(Nc3ncnc4sc(CC(F)(F)F)cc34)CC2)ccc2c1cc(C#N)n2CC(C)N1CCN(S(C)(=O)=O)C(C)C1` (stereo not drawn) [Compound 11], 6.60 to 7.30.
As for `Cc1c(CN2CCC(Nc3ncnc4sc(CC(F)(F)F)cc34)CC2)ccc2c1cc(C#N)n2CC(C)N1C[C@@H](C)N(S(C)(=O)=O)[C@@H](C)C1` (stereo partly drawn) [Compound 12], the figure is greater than 7.30; as for `Cc1c(CN2CCC(Nc3ncnc4sc(CC(F)(F)F)cc34)CC2)ccc2c1cc(C#N)n2CC(C)N1CCN(S(C)(=O)=O)[C@@H](C)C1` (stereo partly drawn) [Compound 13], greater than 7.30.
As for `Cc1c(CN2CCC(Nc3ncnc4sc(CC(F)(F)F)cc34)CC2)ccc2c1cc(C#N)n2CC(C)N1CCN(S(C)(=O)=O)[C@H](C)C1` (stereo partly drawn) [Compound 14], the figure is greater than 7.30.
For `CCC(Cn1c(C#N)cc2c(C)c(CN3CCC(Nc4ncnc5sc(CC(F)(F)F)cc45)CC3)ccc21)N1CCN(S(C)(=O)=O)CC1` (stereo not drawn) [Compound 15], the negative logarithm of the IC50 (pIC50) is less than 6.00.
With `Cc1c(CN2CCC(Nc3ncnc4sc(CC(F)(F)F)cc34)CC2)ccc2c1cc(C#N)n2CC(C)(C)N1CCN(S(C)(=O)=O)CC1` [Compound 16] the figure was less than 6.00; with `Cc1c(CN2CCC(Nc3ncnc4sc(CC(F)(F)F)cc34)CC2)ccc2c1cc(C#N)n2C[C@@H](C)N1CCN(S(C)(=O)=O)[C@@H](C)C1` [Compound 17], 6.60 to 7.30.
Turning to `Cc1c(CN2CCC(Nc3ncnc4sc(CC(F)(F)F)cc34)CC2)ccc2c1cc(C#N)n2C[C@H](C)N1CCN(S(C)(=O)=O)[C@@H](C)C1` [Compound 18], the pIC50 was greater than 7.30.
As for `Cc1c(CN2CCC(Nc3ncnc4sc(CC(F)(F)F)cc34)CC2)ccc2c1cc(C#N)n2C[C@H](C)N1CCN(S(C)(=O)=O)[C@H](C)C1` [Compound 19], the figure is 6.60 to 7.30; as for `Cc1c(CN2CCC(Nc3ncnc4sc(CC(F)(F)F)cc34)CC2)ccc2c1cc(C#N)n2C[C@@H](C)N1CCN(S(C)(=O)=O)[C@H](C)C1` [Compound 20], greater than 7.30.
With `Cc1c(CN2CCC(Nc3ncnc4sc(CC(F)(F)F)cc34)CC2)ccc2c1cc(C#N)n2CC(C)N1C[C@H](C)N(S(C)(=O)=O)[C@@H](C)C1` (stereo partly drawn) [Compound 21] the figure was 6.60 to 7.30; with `Cc1c(CN2CCC(Nc3ncnc4sc(CC(F)(F)F)cc34)CC2)ccc2c1cc(C#N)n2CC(C)N1C[C@@H](C)N(S(C)(=O)=O)[C@H](C)C1` (stereo partly drawn) [Compound 22], greater than 7.30; with `Cc1c(CN2CCC(Nc3ncnc4sc(CC(F)(F)F)cc34)CC2)ccc2c1cc(C#N)n2CC(C1CC1)N1CCN(S(C)(=O)=O)CC1` (stereo not drawn) [Compound 23], less than 6.00.
With `Cc1c(CN2CCC(Nc3ncnc4sc(CC(F)(F)F)cc34)CC2)ccc2c1cc(C#N)n2CC(C(C)C)N1CCN(S(C)(=O)=O)CC1` (stereo not drawn) [Compound 24] the figure was 6.00 to 7.70.
As to `Cc1c(CN2CCC(Nc3ncnc4sc(CC(F)(F)F)cc34)CC2)ccc2c1cc(C#N)n2CC(C)N1CCN(S(C)(=O)=O)C(C)(C)C1` (stereo not drawn) [Compound 25], the pIC50 is 6.60 to 7.30.
As for `CC[C@H]1CN(C(C)Cn2c(C#N)cc3c(C)c(CN4CCC(Nc5ncnc6sc(CC(F)(F)F)cc56)CC4)ccc32)CCN1S(C)(=O)=O` (stereo partly drawn) [Compound 26], the figure is 6.00 to 7.70.
Consider `Cc1c(CN2CCC(Nc3ncnc4sc(CC(F)(F)F)cc34)CC2)ccc2c1cc(C#N)n2C(C)CN1CCN(S(C)(=O)=O)CC1` (stereo not drawn) [Compound 27], for which the pIC50 is greater than 7.30.
With `Cc1c(CN2CCC(Nc3ncnc4sc(CC(F)(F)F)cc34)CC2)ccc2c1cc(C#N)n2CC(C)N1CC2CCC(C1)N2S(C)(=O)=O` (stereo not drawn) [Compound 28] the figure was greater than 7.30.
With `CC[C@@H]1CN(C(C)Cn2c(C#N)cc3c(C)c(CN4CCC(Nc5ncnc6sc(CC(F)(F)F)cc56)CC4)ccc32)CCN1S(C)(=O)=O` (stereo partly drawn) [Compound 29] the figure was 6.60 to 7.30; with `Cc1c(CN2CCC(Nc3ncnc4sc(CC(F)(F)F)cc34)CC2)ccc2c1cc(C#N)n2CC(C)N1CC2CC(C1)N2S(C)(=O)=O` (stereo not drawn) [Compound 30], 6.60 to 7.30; with `Cc1c(CN2CCC(Nc3ncnc4sc(CC(F)(F)F)cc34)CC2)ccc2c1cc(C#N)n2CC(=O)N1CCN(S(C)(=O)=O)CC1` [Compound 35, 4-methyl-1-(2-(4-(methylsulfonyl)piperazin-1-yl)-2-oxoethyl)-5-((4-((6-(2,2,2-trifluoroethyl)thieno[2,3-d]pyrimidin-4-yl)amino)piperidin-1-yl)methyl)-1H-indole-2-carbonitrile], less than 6.00.
As for `Cc1c(CN2CCC(Nc3ncnc4sc(CC(F)(F)F)cc34)CC2)ccc2c1cc(C#N)n2CCN1CCN(S(C)(=O)=O)C(C)C1` (stereo not drawn) [Compound 43], the figure is 6.60 to 7.30; as for `Cc1c(CN2CCC(Nc3ncnc4sc(CC(F)(F)F)cc34)CC2)ccc2c1cc(C#N)n2CCN1CC(C)N(S(C)(=O)=O)CC1C` (stereo not drawn) [Compound 44], 6.00 to 7.70.
For `Cc1c(CN2CCC(Nc3ncnc4sc(CC(F)(F)F)cc34)CC2)ccc2c1cc(C#N)n2CCN1CCN(S(C)(=O)=O)CC1C` (stereo not drawn) [Compound 45], the pIC50 was 6.00 to 7.70.
As to `Cc1c(CN2CCC(Nc3ncnc4sc(CC(F)(F)F)cc34)CC2)ccc2c1cc(C#N)n2CCN1C[C@@H](C)N(S(C)(=O)=O)[C@@H](C)C1` [Compound 46], the pIC50 was 6.60 to 7.30.
With `Cc1c(CN2CCC(Nc3ncnc4sc(CC(F)(F)F)cc34)CC2)ccc2c1cc(C#N)n2CCN1C(C)CN(S(C)(=O)=O)CC1C` (stereo not drawn) [Compound 47] the figure was less than 6.00; with `Cc1c(CN2CCC(Nc3ncnc4sc(CC(F)(F)F)cc34)CC2)ccc2c1cc(C#N)n2CCN1C[C@@H](C)N(S(C)(=O)=O)[C@H](C)C1` [Compound 48], 6.60 to 7.30; with `Cc1c(CN2CCC(Nc3ncnc4sc(CC(F)(F)F)cc34)CC2)ccc2c1cc(C#N)n2CCN1C[C@H](C)N(S(C)(=O)=O)[C@@H](C)C1` [Compound 49], 6.60 to 7.30.
`Cc1c(CN2CCC(Nc3ncnc4sc(CC(F)(F)F)cc34)CC2)ccc2c1cc(C#N)n2CCN1CCC2(CC1)CCN(S(C)(=O)=O)C2` [Compound 52]: the pIC50 is 6.00 to 7.70.
As for `Cc1c(CN2CCC(Nc3ncnc4sc(CC(F)(F)F)cc34)CC2)ccc2c1cc(C#N)n2CCN1CCC2(CCN(S(C)(=O)=O)C2)C1` (stereo not drawn) [Compound 53], the figure is 6.00 to 7.70.
With `Cc1c(CN2CCC(Nc3ncnc4sc(CC(F)(F)F)cc34)CC2)ccc2c1cc(C#N)n2CCN1CCC2(CC1)CN(S(C)(=O)=O)C2` [Compound 54] the figure was 6.60 to 7.30; with `Cc1c(CN2CCC(Nc3ncnc4sc(CC(F)(F)F)cc34)CC2)ccc2c1cc(C#N)n2CCN1CC2CN(S(C)(=O)=O)CC2C1` (stereo not drawn) [Compound 55], 6.00 to 7.70.
As for `Cc1c(CN2CCC(Nc3ncnc4sc(CC(F)(F)F)cc34)CC2)ccc2c1cc(C#N)n2CCN1CC2(CCN(S(C)(=O)=O)CC2)C1` [Compound 56], the figure is 6.00 to 7.70; as for `Cc1c(CN2CCC(Nc3ncnc4sc(CC(F)(F)F)cc34)CC2)ccc2c1cc(C#N)n2CCN1CC2(C1)CN(S(C)(=O)=O)C2` [Compound 57], 6.00 to 7.70; as for `Cc1c(CN2CCC(Nc3ncnc4sc(CC(F)(F)F)cc34)CC2)ccc2c1cc(C#N)n2CCN1CC2(CCN(S(C)(=O)=O)C2)C1` [Compound 58], 6.00 to 7.70.
Consider `Cc1c(CN2CCC(Nc3ncnc4sc(CC(F)(F)F)cc34)CC2)ccc2c1cc(C#N)n2CCC1CCN(S(C)(=O)=O)C(C)C1` (stereo not drawn) [Compound 59], for which the pIC50 is 6.00 to 7.70.
With `Cc1c(CN2CCC(Nc3ncnc4sc(CC(F)(F)F)cc34)CC2)ccc2c1cc(C#N)n2CCC1(C)CCN(S(C)(=O)=O)CC1` [Compound 60] the figure was less than 6.00.
With `Cc1c(CN2CCC(Nc3ncnc4sc(CC(F)(F)F)cc34)CC2)ccc2c1cc(C#N)n2CC1(N2CCN(S(C)(=O)=O)CC2)CC1` [Compound 61] the figure was 6.60 to 7.30; with `Cc1c(CN2CCC(Nc3ncnc4sc(CC(F)(F)F)cc34)CC2)ccc2c1cc(C#N)n2CC(CO)N1CCN(S(C)(=O)=O)CC1` (stereo not drawn) [Compound 62], less than 6.00; with `CNS(=O)(=O)N1CCN([C@@H](C)Cn2c(C#N)cc3c(C)c(CN4CCC(Nc5ncnc6sc(CC(F)(F)F)cc56)CC4)ccc32)CC1` [Compound 64], greater than 7.30.
